Assay results as given in patent US8227240B2, “Systems for screening pharmaceutical chemicals” (The Washington University, priority 2001, dated 2012).

What was measured:
[1] = test system: actin cytoskeletons in mono-layer cell cultures; test: Confocal microscopy of actin cytoskeletons stained with Rhodamine phalloidin; type: cell-based; settings: CD 2 nM
[2] = test system: bio-artificial tissues including chicken embryo fibroblasts; test: Tissue indentation device: stiffness and active cell force after CD (Example 16); type: cell-based
Procedure: Bio-artificial tissues were generated by mixing cells and neutralized collagen, as described elsewhere (Wakatsuki et al., 2000, Biophys. J. 79:2353-2368). Briefly, cells were mixed with neutralized rat-tail collagen (Millipore Billerica, Mass.) and media containing 10% Fetal Bovine Serum (FBS). 200-250[…]1 of this solution is poured into wells as described below. The tissues are cultured in Dulbecco's modified Eagle's medium (DMEM) supplemented with 10% FBS and antibiotics (penicillin and streptomycin) in an incubator for two or three days. The bio-artificial tissue membrane was stretched using a mechanical testing device is (as detailed below). During the mechanical measurements, culture medium was switched to a HEPES-buffered DMEM, pH 7.4, and maintained at 37° C.
Cells used in this study included: (1) rat embryo fibroblasts (REF52 cell line) maintained in DMEM supplemented with 10% FBS split once a week (kind gift from Dr. Wysolmerski, Department of Neurobiology and Anatomy, West Virginia University School of Medicine), (2) chicken embryo fibroblasts (CEFs) isolated from 10 day old chicken embryos using a previously described protocol (Wakatsuki et al., 2000, Biophys. J. 79(5):2353-2368) maintained in DMEM supplemented with 3% FBS (passage 2 to 5), and (3) smooth muscle cells (SMC) isolated from adult rat aorta using a previously described protocol (Griendling et al., 1991, J. Biol. Chem. 266(23):15498-15504) cultured in DMEM supplemented with 10% FBS and 1% […] (passage 10-12).
A chamber to hold 8 bio-artificial tissues was machined from a polycarbonate bar (25×60×10 mm) using a tabletop CNC mill (Sherline Products Inc., Vista, Calif.). The 8 square wells of 8×8 mm contained 2 horizontal stainless-steel (medical grade) bars (1 mm diameter) which centers were located 2 mm above bottom and 2 mm beside each wall and were 4 mm apart (FIG. 29A). A microscope cover-slip (No. 1 thickness, Fisher brand) sealed the bottom of wells using silicon glue (Dow chemicals) to facilitate microscopic imaging of cells and bio-artificial tissues. A pre-polymerized solution of bio-artificial tissues was poured into the wells until the horizontal bars became immersed to half of its depth. During tissue culture, the solution gelled and entrapped cells that remodeled and compacted the gel (Tranquillo, 1999, Biochem. Soc. Symp. 65:27-42) by cell traction force. By the next day, the bio-artificial tissues detached from the bottom and side wall to form a membrane spanning between the two bars. The bio-artificial tissues stiffened to form a thin layer of tissue overlaying the bars and generated active tension within the bio-artificial tissues. The chambers were sterilized by UV before usage and kept in a 100 mm sterile Petri dish to avoid any contamination.
The mechanical testing device is depicted in FIG. 29A. A horizontal linear actuator (FIG. 29A-a, ER32-SRN300A, Parker, Wadsworth, Ohio) automatically places the center of each well at right angles below a force-probe (FIG. 29A-c). The bottom of L-shaped probe indents and bends the bio-artificial tissues at the middle (FIG. 29D). The other end of the probe is connected to an isometric force transducer (FIG. 29A-b, model 52-9545, Harvard Apparatus, South Natick, Mass.) and moved by a vertical linear actuator (FIG. 29A-a, ER32-SRN100A, Parker, Wadsworth, Ohio). During the tests, the temperature of bio-artificial tissues in the wells was maintained at 37° C. using a water jacketed warm plate (FIG. 29A-e) connected to a circulating water bath (HAAKE C10-P5, Thermo Fisher Scientific, Inc. Waltham, Mass.). The linear actuators were controlled simultaneously by a personal computer that also recorded the signal generated by the force transducer. The bio-artificial tissues can be quickly placed in a holder at its designated position for mechanical measurements. A time dependent function to lengthen and shorten bio-artificial tissues was predetermined using the computer software of the device. […]

## C=C1[C@@H](C)[C@H]2[C@H](Cc3ccccc3)NC(=O)[C@]23[C@H](OC(C)=O)/C=C/[C@@](C)(O)C(=O)[C@@H](C)C/C=C/[C@H]3[C@@H]1O [CD, cytochalasin D]
[1]
  effect on actin cytoskeletons by confocal microscopy: no effect was observed
[2]; 200 pM to 2 μM CD, two hours post-treatment
  pre-force (active cell force, CD treatment over control): concentration-dependent reduction
[2]; [CD] 0.2 nM
  EACD/EACT (ratio of post- over pre- CD treated stiffness): 0.932 ± 0.013
  zCD-zCT (difference in sample surface height between post- and pre- CD treated samples): −8.925 ± 9.257 μm
[2]; [CD] 0.9 nM
  EACD/EACT (ratio of post- over pre- CD treated stiffness): 0.938 ± 0.016
  zCD-zCT (difference in sample surface height between post- and pre- CD treated samples): −21.761 ± 8.982 μm
[2]; [CD] 4 nM
  EACD/EACT (ratio of post- over pre- CD treated stiffness): 0.986 ± 0.015
  zCD-zCT (difference in sample surface height between post- and pre- CD treated samples): −23.707 ± 13.222 μm
[2]; [CD] 20 nM
  EACD/EACT (ratio of post- over pre- CD treated stiffness): 0.979 ± 0.013
  zCD-zCT (difference in sample surface height between post- and pre- CD treated samples): 4.550 ± 7.653 μm
[2]; [CD] 90 nM
  EACD/EACT (ratio of post- over pre- CD treated stiffness): 0.970 ± 0.016
  zCD-zCT (difference in sample surface height between post- and pre- CD treated samples): −22.054 ± 12.989 μm
[2]; [CD] 400 nM
  EACD/EACT (ratio of post- over pre- CD treated stiffness): 0.964 ± 0.021
  zCD-zCT (difference in sample surface height between post- and pre- CD treated samples): −17.607 ± 6.533 μm
[2]; [CD] 2000 nM
  EACD/EACT (ratio of post- over pre- CD treated stiffness): 1.077 ± 0.050
  zCD-zCT (difference in sample surface height between post- and pre- CD treated samples): −35.318 ± 15.189 μm
[2]; after the CD treatment
  EA (mechanical properties of extracellular matrix): did not change at all
